Each block holds one molecule with its values, some of them ahead of it. The source made the active and inactive calls. No cut-off for these calls is given here.
What was measured:
[1] = target: Voltage-dependent T-type calcium channel subunit alpha-1H (Homo sapiens) (UniProt O95180); assay: Antagonist activity against T-type calcium channel subunit alpha-1H assessed as inactivation of channel current at 0.3 uM by cell based patch clamp assay; format: functional
[2] = target: Voltage-dependent T-type calcium channel subunit alpha-1H (Homo sapiens) (UniProt O95180); assay: Antagonist activity against T-type calcium channel subunit alpha-1H assessed as inactivation of channel current at 0.1 uM by cell based patch clamp assay; format: functional
[3] = target: Voltage-dependent T-type calcium channel subunit alpha-1H (Homo sapiens) (UniProt O95180); assay: Antagonist activity against T-type calcium channel subunit alpha-1H assessed as inactivation of channel current at 1 uM by cell based patch clamp assay; format: functional
[4] = target: Voltage-dependent T-type calcium channel subunit alpha-1H (Homo sapiens) (UniProt O95180); assay: Antagonist activity against T-type calcium channel subunit alpha-1H assessed as inactivation of channel current at 3 uM by cell based patch clamp assay; format: functional
[5] = target: Voltage-dependent L-type calcium channel subunit alpha-1C (Homo sapiens) (UniProt Q13936); assay: Antagonist activity against L-type calcium channel subunit alpha-1C assessed as inactivation of channel current at 3 uM by cell based patch clamp assay
Sequence of Voltage-dependent L-type calcium channel subunit alpha-1C (Homo sapiens) (Q13936 whole entry, looked up): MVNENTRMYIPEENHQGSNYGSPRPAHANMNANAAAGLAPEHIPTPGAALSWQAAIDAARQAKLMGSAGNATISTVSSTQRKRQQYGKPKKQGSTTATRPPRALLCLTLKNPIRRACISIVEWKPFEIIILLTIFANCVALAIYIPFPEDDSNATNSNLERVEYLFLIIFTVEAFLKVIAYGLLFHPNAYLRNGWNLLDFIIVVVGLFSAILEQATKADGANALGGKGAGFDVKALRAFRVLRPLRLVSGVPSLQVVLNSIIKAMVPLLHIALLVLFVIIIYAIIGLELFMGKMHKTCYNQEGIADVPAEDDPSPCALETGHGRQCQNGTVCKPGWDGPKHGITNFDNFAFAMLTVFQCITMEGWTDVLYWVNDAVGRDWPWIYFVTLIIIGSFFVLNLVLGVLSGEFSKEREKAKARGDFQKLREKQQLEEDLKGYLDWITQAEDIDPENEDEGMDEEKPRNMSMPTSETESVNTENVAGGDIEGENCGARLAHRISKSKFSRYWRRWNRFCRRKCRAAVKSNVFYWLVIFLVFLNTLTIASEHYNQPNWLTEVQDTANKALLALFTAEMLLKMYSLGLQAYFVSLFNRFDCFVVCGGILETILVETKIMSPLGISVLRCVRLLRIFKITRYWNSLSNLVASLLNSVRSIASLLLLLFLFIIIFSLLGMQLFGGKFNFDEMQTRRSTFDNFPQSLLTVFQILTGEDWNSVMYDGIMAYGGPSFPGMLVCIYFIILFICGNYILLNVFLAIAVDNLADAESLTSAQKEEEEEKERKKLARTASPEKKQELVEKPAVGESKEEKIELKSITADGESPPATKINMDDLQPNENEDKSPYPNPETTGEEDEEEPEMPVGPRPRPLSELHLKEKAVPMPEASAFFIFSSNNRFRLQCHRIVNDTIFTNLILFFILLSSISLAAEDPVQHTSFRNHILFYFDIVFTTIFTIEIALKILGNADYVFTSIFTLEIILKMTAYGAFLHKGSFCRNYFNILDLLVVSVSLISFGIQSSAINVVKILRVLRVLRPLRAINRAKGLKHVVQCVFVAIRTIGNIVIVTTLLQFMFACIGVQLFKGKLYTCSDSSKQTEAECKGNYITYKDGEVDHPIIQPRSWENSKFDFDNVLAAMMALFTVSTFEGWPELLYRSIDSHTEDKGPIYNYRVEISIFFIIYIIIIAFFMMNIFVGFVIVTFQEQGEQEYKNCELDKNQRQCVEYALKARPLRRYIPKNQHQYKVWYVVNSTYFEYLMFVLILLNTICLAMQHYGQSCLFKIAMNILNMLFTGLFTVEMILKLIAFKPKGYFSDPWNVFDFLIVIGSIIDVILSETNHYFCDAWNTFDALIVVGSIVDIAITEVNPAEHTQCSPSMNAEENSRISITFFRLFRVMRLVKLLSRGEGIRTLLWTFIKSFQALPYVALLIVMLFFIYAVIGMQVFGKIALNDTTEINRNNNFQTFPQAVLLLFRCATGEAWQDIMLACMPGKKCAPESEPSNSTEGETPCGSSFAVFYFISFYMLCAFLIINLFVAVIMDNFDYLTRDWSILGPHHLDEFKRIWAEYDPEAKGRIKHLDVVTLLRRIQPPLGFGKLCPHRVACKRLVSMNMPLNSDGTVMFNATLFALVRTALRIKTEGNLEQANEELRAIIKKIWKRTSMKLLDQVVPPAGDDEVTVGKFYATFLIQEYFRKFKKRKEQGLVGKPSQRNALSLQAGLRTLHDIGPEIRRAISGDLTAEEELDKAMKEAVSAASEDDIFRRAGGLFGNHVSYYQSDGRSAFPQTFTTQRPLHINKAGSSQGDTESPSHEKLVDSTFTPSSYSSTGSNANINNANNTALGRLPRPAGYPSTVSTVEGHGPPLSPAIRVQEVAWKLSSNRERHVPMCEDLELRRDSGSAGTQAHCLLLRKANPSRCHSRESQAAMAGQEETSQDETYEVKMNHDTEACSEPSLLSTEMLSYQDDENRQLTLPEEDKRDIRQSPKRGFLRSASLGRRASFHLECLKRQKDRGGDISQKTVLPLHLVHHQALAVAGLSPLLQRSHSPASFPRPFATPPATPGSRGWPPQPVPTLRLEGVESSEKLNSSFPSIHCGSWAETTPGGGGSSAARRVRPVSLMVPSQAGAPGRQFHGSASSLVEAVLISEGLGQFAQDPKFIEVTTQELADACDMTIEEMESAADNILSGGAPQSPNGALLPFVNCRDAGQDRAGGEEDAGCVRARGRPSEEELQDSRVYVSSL

[6] = target: Voltage-dependent T-type calcium channel subunit alpha-1H (Homo sapiens) (UniProt O95180); assay: Antagonist activity against T-type calcium channel subunit alpha-1H assessed as inactivation of channel current at 0.03 uM by cell based patch clamp assay; format: functional
[7] = Selectivity for T-type calcium channel subunit alpha-1H over L-type calcium channel subunit alpha-1C
[8] = target: Voltage-dependent L-type calcium channel subunit alpha-1C (Homo sapiens) (UniProt Q13936); assay: Antagonist activity against L-type calcium channel subunit alpha-1C assessed as inactivation of channel current at 0.1 uM by cell based patch clamp assay
[9] = target: Voltage-dependent L-type calcium channel subunit alpha-1C (Homo sapiens) (UniProt Q13936); assay: Antagonist activity against L-type calcium channel subunit alpha-1C assessed as inactivation of channel current at 0.3 uM by cell based patch clamp assay
[10] = target: Voltage-dependent L-type calcium channel subunit alpha-1C (Homo sapiens) (UniProt Q13936); assay: Antagonist activity against L-type calcium channel subunit alpha-1C assessed as inactivation of channel current at 10 uM by cell based patch clamp assay

Sequence of Voltage-dependent T-type calcium channel subunit alpha-1H (Homo sapiens) (O95180 whole entry): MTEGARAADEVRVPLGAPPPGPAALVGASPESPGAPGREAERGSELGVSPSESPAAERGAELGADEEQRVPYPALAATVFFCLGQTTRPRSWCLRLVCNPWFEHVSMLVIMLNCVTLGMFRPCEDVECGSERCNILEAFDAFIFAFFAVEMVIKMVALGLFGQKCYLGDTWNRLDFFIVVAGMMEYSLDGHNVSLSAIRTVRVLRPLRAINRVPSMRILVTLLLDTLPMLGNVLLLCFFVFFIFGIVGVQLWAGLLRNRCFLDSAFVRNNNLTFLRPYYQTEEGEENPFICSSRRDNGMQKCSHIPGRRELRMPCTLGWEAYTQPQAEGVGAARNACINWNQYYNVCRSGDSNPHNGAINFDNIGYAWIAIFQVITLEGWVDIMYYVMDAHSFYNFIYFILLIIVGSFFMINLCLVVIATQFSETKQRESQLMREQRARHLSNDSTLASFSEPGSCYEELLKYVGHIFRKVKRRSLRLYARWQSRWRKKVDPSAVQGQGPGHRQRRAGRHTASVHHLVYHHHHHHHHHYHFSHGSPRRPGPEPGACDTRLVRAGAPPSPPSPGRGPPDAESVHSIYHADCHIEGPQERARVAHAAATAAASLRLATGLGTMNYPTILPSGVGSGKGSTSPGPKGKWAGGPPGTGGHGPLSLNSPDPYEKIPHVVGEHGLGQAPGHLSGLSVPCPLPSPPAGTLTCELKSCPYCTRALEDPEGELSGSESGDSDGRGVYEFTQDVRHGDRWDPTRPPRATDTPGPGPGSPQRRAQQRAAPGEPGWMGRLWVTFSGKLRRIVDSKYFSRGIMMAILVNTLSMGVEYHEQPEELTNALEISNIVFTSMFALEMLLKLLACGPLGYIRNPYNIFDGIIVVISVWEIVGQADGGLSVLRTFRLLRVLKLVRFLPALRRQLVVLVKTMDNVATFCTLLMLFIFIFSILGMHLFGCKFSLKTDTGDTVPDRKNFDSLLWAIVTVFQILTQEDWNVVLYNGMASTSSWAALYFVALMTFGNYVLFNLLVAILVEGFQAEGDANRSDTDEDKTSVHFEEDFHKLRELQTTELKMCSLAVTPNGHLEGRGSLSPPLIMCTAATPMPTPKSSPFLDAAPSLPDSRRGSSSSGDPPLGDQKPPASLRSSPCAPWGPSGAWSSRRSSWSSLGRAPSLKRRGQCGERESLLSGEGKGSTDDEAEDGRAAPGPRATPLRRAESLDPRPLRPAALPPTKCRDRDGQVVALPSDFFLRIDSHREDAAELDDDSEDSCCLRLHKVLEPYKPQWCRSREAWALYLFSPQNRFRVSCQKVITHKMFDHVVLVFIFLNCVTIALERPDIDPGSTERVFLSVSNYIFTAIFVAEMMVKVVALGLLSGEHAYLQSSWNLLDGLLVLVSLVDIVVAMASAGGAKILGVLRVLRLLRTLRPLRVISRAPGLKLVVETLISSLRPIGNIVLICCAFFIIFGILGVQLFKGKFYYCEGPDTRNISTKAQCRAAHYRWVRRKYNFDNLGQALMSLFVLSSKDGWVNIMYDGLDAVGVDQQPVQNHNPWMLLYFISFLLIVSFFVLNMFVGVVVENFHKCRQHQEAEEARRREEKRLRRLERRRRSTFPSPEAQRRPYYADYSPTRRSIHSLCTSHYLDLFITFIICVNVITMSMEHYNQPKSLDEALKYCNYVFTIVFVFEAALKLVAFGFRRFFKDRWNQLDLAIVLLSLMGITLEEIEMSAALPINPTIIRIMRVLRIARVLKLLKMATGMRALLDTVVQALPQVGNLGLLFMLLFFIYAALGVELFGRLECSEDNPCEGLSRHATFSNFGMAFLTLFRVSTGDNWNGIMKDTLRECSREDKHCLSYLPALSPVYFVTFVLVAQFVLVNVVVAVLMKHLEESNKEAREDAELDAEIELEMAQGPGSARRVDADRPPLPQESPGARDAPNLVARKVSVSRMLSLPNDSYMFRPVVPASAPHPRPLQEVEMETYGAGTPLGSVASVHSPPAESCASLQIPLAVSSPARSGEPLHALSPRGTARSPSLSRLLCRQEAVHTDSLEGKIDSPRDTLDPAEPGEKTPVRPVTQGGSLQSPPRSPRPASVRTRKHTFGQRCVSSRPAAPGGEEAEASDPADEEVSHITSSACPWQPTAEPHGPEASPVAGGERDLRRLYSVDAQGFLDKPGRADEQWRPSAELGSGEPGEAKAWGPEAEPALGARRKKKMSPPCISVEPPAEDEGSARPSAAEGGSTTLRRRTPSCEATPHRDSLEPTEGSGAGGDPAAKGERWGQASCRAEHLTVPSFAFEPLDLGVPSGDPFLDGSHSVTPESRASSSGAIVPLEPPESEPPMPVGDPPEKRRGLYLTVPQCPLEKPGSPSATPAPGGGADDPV

- inhibition [1]: 40%
Compound: CC(C)C(C(C)C)N1CCC2(CCN(Cc3ccc(Cl)cc3)C2=O)CC1

- inhibition [2]: 59%
Compound: O=C1N(Cc2ccc(Cl)cc2)CCC12CCN(CC(c1ccc(F)cc1)c1ccc(F)cc1)CC2

- inhibition [3]: 66%
Compound: Fc1ccc(C(c2ccc(F)cc2)N2CCC3(CCN(Cc4ccc(Cl)cc4)C3)CC2)cc1

- inhibition [4]: 57%
- inhibition [5]: 52%
Compound: CC(C)N1CCC2(CCN(C(c3ccc(F)cc3)c3ccc(F)cc3)CC2)C1=O

- inhibition [4]: 45%
- inhibition [5]: 54%
Compound: O=C1N(Cc2ccc(Cl)cc2)CCC12CCN(S(=O)(=O)c1ccc(F)cc1)CC2

- inhibition [3]: 35%
Compound: O=C1N(CCCN2CCOCC2)CCC12CCN(C(c1ccc(F)cc1)c1ccc(F)cc1)CC2

- inhibition [6]: 58%
- Ratio IC50 [7]: 10
- inhibition [8]: 31%
Compound: O=C1N(Cc2ccc(Cl)cc2)CCC12CCN(C(c1ccc(F)cc1)c1ccc(F)cc1)CC2

- inhibition [9]: 67%
- inhibition [6]: 52%
- Ratio IC50 [7]: 8
Compound: COc1cccc(CN2CCC3(CCN(C(c4ccc(F)cc4)c4ccc(F)cc4)CC3)C2=O)c1

- inhibition [3]: < 20%
Compound: O=C(c1ccc(F)cc1)N1CCC2(CC1)CCN(Cc1ccc(Cl)cc1)C2=O

- inhibition [3]: 68%
- inhibition [8]: 42%
Compound: O=C1CC2(CCN(C(c3ccc(F)cc3)c3ccc(F)cc3)CC2)CN1Cc1ccc(Cl)cc1

- inhibition [3]: 28%
Compound: COCCN1CCC2(CCN(C(c3ccc(F)cc3)c3ccc(F)cc3)CC2)C1=O

- inhibition [3]: 44%
- inhibition [10]: 58%
Compound: COCCCN1CCC2(CCN(C(c3ccc(F)cc3)c3ccc(F)cc3)CC2)C1=O

Compound: O=C1N(Cc2ccc(Cl)cc2)CCC12CCNCC2
- inhibition [4]: < 20%

- inhibition [1]: 91%
- inhibition [6]: < 20%
Compound: O=C1N(Cc2cccc(Cl)c2)CCC12CCN(C(c1ccc(F)cc1)c1ccc(F)cc1)CC2

- inhibition [6]: 30%
Compound: O=C1N(CCc2ccc(Cl)cc2)CCC12CCN(C(c1ccc(F)cc1)c1ccc(F)cc1)CC2

- inhibition [1]: 56%
Compound: O=C1N(Cc2ccc(Cl)cc2)CCC12CCN(Cc1cccc(Oc3ccccc3)c1)CC2

- inhibition [4]: 67%
Compound: CCOc1ccccc1CN1CCC2(CC1)CCN(Cc1ccc(Cl)cc1)C2=O

- inhibition [1]: 59%
- inhibition [8]: 44%
Compound: O=C(c1ccc(Cl)cc1)N1CCC2(CCN(C(c3ccc(F)cc3)c3ccc(F)cc3)CC2)C1

- inhibition [4]: 65%
- inhibition [5]: 59%
Compound: O=C1N(Cc2ccc(Cl)cc2)CCC12CCN(Cc1ccc(F)cc1)CC2

- inhibition [9]: 60%
- inhibition [1]: 44%
Compound: CC(C)(C)CCN1CCC2(CCN(C(c3ccc(F)cc3)c3ccc(F)cc3)CC2)C1=O

- inhibition [4]: < 20%
- inhibition [3]: inactive
Compound: O=C1NCCC12CCN(C(c1ccc(F)cc1)c1ccc(F)cc1)CC2

- inhibition [3]: 76%
- inhibition [5]: 56%
Compound: CC(C)OCCCN1CCC2(CCN(C(c3ccc(F)cc3)c3ccc(F)cc3)CC2)C1=O

Source: ChEMBL document CHEMBL1268989, “Design, syntheses, and SAR of 2,8-diazaspiro[4.5]decanones as T-type calcium channel antagonists” (Bioorg Med Chem Lett, 2010)
